target: GST-tagged truncated human mutant G2019S LRRK2 (Homo sapiens (Human), UniProt Q5S007, G2019S); assay: LRRK2 G2019S Km ATP LanthaScreen assay; type: biochemical; conditions: G2019S LRRK2, 134 μM ATP (Km ATP), LRRKtide substrate
How it was run: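 TR-FRET assay with GST-tagged truncated human G2019S LRRK2 (1.25 nM), preincubated with compound 15 min, then reacted with fluorescein-LRRKtide and 134 μM ATP (Km) in Tris pH 8.5 buffer, 90 min, ambient temperature. Tb-anti-phospho-LRRKtide detection, 520/495 nm ratio; IC50 by 4-parameter logistic fit, top concentration 9.99 μM in DMSO, 10 points.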

GST-tagged truncated human mutant G2019S LRRK2, sequence (Q5S007 970-2527 G2019S): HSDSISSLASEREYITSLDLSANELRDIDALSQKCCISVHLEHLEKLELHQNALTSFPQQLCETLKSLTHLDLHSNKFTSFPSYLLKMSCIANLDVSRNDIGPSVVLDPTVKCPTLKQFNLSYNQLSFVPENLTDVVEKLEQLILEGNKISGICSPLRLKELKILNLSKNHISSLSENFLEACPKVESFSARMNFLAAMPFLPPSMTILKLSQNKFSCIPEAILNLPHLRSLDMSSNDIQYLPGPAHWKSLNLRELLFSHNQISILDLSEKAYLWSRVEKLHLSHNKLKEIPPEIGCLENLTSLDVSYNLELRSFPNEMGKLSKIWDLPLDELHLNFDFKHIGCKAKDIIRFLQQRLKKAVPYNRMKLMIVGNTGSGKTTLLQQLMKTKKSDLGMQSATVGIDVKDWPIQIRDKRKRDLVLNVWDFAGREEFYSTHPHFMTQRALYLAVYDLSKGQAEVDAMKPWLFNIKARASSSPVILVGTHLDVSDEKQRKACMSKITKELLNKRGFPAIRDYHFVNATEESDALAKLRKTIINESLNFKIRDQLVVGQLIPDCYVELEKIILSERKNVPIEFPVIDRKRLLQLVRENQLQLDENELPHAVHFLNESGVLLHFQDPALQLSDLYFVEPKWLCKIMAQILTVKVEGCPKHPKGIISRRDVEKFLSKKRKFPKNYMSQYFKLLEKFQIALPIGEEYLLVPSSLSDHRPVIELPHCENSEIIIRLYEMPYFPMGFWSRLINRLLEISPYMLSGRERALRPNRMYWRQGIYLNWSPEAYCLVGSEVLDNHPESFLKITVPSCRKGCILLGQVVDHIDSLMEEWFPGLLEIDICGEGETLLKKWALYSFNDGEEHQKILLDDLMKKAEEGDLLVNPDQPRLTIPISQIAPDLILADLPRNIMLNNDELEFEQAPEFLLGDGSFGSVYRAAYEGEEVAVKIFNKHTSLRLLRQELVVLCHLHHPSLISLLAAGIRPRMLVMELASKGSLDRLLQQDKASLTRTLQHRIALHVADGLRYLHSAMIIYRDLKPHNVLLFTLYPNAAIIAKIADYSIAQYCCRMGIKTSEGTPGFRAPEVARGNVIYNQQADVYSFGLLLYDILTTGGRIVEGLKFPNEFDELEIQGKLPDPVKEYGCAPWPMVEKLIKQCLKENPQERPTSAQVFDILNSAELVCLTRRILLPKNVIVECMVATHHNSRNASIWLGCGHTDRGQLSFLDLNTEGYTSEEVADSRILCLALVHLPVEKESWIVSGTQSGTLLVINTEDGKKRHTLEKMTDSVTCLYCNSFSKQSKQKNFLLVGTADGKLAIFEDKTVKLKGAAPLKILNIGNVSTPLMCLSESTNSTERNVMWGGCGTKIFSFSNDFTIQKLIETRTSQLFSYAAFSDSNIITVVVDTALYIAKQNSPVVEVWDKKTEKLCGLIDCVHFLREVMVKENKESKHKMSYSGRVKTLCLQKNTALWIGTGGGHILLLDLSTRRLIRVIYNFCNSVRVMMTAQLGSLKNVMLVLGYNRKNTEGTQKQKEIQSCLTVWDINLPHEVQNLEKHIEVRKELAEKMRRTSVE

Molecule | LRRK2 pIC50
CC(C)(C#N)c1nn(C2CCC2)c2c1OC[C@H]1CC[C@@H]1Nc1nc(ncc1C(F)(F)F)N2 [Ex-2.53, 2-((10aS,12aS)- or 2-((10aR,12aR)-3-cyclobutyl-8-(trifluoromethyl)-3,4,10,10a,11,12,12a,13-octahydro-5,9-(azeno)cyclobuta[k]pyrazolo[4,3-b][1]oxa[4,6,10]triazacyclotridecin-1-yl)-2-methylpropanenitrile] | 9.64
FC(F)(F)c1cnc2nc1N[C@@H]1COC[C@H]1COc1cccc(Br)c1N2 [Ex-15.4, (3aS,16aS)-11-bromo-6-(trifluoromethyl)-3a,4,16,16a-tetrahydro-1H,3H,10H-5,9-(azeno)benzo[b]furo[3,4-k][1]oxa[4,6,10]triazacyclotridecine] | 9.12
Cc1nn(C)c2c1OCC1CC[C@H]1Nc1nc(ncc1C(F)(F)F)N2 (stereo partly drawn) [Ex-2.10, (10aR,12aR)- or (10aS,12aS)-1,3-dimethyl-8-(trifluoromethyl)-3,4,10,10a,11,12,12a,13-octahydro-5,9-(azeno)cyclobuta[k]pyrazolo[4,3-b][1]oxa[4,6,10]triazacyclotridecine] | >10.09
Cc1nn(C2CCC2)c2c1OC1COC[C@@H]1CNc1nc(ncc1Cl)N2 (stereo partly drawn) [Ex-2.83, (11aR,14aR)- or (11aS,14aS) 8-chloro-3-cyclobutyl-1-methyl-3,4,10,11,11a,12,14,14a-octahydro-5,9-(azeno)furo[3,4-1]pyrazolo[4,3-b][1]oxa[4,6,10]triazacyclotridecine] | 5.76
Cc1nn(C2CCOC2)c2c1OC[C@@H]1CC[C@H]1Nc1nc(ncc1C(F)(F)F)N2 (stereo partly drawn) [Ex-2.74, (10aR,12aR)-1-methyl-3-((S)- or (10aR,12aR)-1-methyl-3-((R)-tetrahydrofuran-3-yl)-8-(trifluoromethyl)-3,4,10,10a,11,12,12a,13-octahydro-5,9-(azeno)cyclobuta[k]pyrazolo[4,3-b][1]oxa[4,6,10]triazacyclotridecine] | >10.09
CC(C)c1nn(C(C)(C)CO)c2c1Nc1ncc(C(F)(F)F)c(n1)N[C@H](C)CCO2 [Ex-7.4, (R)-2-(3-isopropyl-11-methyl-8-(trifluoromethyl)-10,11,12,13-tetrahydro-5,9-(azeno)pyrazolo[3,4-b][1]oxa[4,6,10]triazacyclotridecin-1(4H)-yl)-2-methylpropan-1-ol] | >10.09
Cc1nn(C2CCC2)c2c1OC[C@H]1CN(C[C@@H]1C)c1nc(ncc1C(F)(F)F)N2 (single isomer, unassigned) [Ex-20.1, (6S,7S)- or (6R,7R)-1-Cyclobutyl-3,7-dimethyl-11-(trifluoromethyl)-1,5,6,7,8,15-hexahydro-10,14-(azeno)-6,9-methanopyrazolo[4,3-b][1]oxa[4,6,10]triazacyclotetradecine] | 5.84
CC(C)n1nc(C2CC2)c2c1Nc1ncc(C(F)(F)F)c(n1)N[C@@H]1COC[C@H]1CO2 [Ex-2.57, (10aS,13aS)-1-cyclopropyl-3-isopropyl-8-(trifluoromethyl)-3,4,10a,11,13a,14-hexahydro-10H,13H-5,9-(azeno)furo[3,4-k]pyrazolo[4,3-b][1]oxa[4,6,10]triazacyclotridecine] | 9.98
Cc1nn(C2CCC2)c2c1OC[C@@H]1COC[C@H]1Nc1nc(ncc1Cl)N2 [Ex-2.49, (10aS,13aS)-8-chloro-3-cyclobutyl-1-methyl-3,4,10a,11,13a,14-hexahydro-10H,13H-5,9-(azeno)furo[3,4-k]pyrazolo[4,3-b][1]oxa[4,6,10]triazacyclotridecine] | >10.09
FC(F)(F)c1cnc2nc1NC1CCC1COc1c(C3CCOC3)nn(C3CCC3)c1N2 [Ex-2.63, (10aR,12aR)-3-cyclobutyl-1-((R)-(10aR,12aR)-3-cyclobutyl-1-((S)-(10aS,12aS)-3-cyclobutyl-1-((R)-(10aS,12aS)-3-cyclobutyl-1-((S)-tetrahydrofuran-3-yl)-8-(trifluoromethyl)-3,4,10,10a,11,12,12a,13-octahydro-5,9-(azeno)cyclobuta[k]pyrazolo[4,3-b][1]oxa[4,6,10]triazacyclotridecine] | >10.09
Cc1nn(C)c2c1OCC1CC[C@H]1Nc1nc(ncc1C(F)(F)F)N2 (stereo partly drawn) [Ex-2.13, (10aR,12aS)- or (10aS,12aR)-1,3-dimethyl-8-(trifluoromethyl)-3,4,10,10a,11,12,12a,13-octahydro-5,9-(azeno)cyclobuta[k]pyrazolo[4,3-b][1]oxa[4,6,10]triazacyclotridecine] | >10.09
CCOC(=O)Cc1nn(C2CC2)c2c1OC[C@@H]1COC[C@H]1Nc1nc(ncc1C(F)(F)F)N2 [Ex-2.67, ethyl 2-((10aS,13aS)-3-cyclopropyl-8-(trifluoromethyl)-3,4,10a,11,13a,14-hexahydro-10H,13H-5,9-(azeno)furo[3,4-k]pyrazolo[4,3-b][1]oxa[4,6,10]triazacyclotridecin-1-yl)acetate] | 9.45
Cc1nn(C2CC2(F)F)c2c1OCC1COCC1Nc1nc(ncc1C(F)(F)F)N2 [Ex-2.58, (10aS,13aS)-3-((R)-2,2-difluorocyclopropyl)-1-methyl-8-(trifluoromethyl)-3,4,10a,11,13a,14-hexahydro-10H,13H-5,9-(azeno)furo[3,4-k]pyrazolo[4,3-b][1]oxa[4,6,10]triazacyclotridecine (10aS,13aS)-3-((S)-2,2-difluorocyclopropyl)-1-methyl-8-(trifluoromethyl)-3,4,10a,11,13a,14-hexahydro-10H,13H-5,9-(azeno)furo[3,4-k]pyrazolo[4,3-b][1]oxa[4,6,10]triazacyclotridecine] | 8.78
Cc1nn(C)c2c1Nc1ncc(C(F)(F)F)c(n1)NCC1(CC1)CO2 [Ex-1.23, 1′,3′-dimethyl-8′-(trifluoromethyl)-1′,4′,10′,11′-tetrahydro-13′H-spiro[cyclopropane-1,12′-[5,9](azeno)pyrazolo[3,4-b][1]oxa[4,6,10]triazacyclotridecine]] | 9.47
Cc1nn(C2CCC2)c2c1OC[C@@H]1COCC[C@H]1Nc1nc(ncc1C(F)(F)F)N2 [Ex-2.33, (4aR,16aS)- or (4aS,16aR)-12-cyclobutyl-14-methyl-7-(trifluoromethyl)-3,4,4a,5,11,12,16,16a-octahydro-1H-6,10-(azeno)pyrano[4,3-k]pyrazolo[4,3-b][1]oxa[4,6,10]triazacyclotridecine] | 9.11
Cc1nn(C2CCC2)c2c1OC1COC[C@H]1CNc1nc(ncc1C(F)(F)F)N2 (stereo partly drawn) [Ex-2.79, (11aR,14aR)-3-cyclobutyl-1-methyl-8-(trifluoromethyl)-3,4,10,11,11a,12,14,14a-octahydro-5,9-(azeno)furo[3,4-1]pyrazolo [4,3-b][1]oxa[4,6,10]triazacyclotridecine (11aS,14aS)-3-cyclobutyl-1-methyl-8-(trifluoromethyl)-3,4,10,11,11a,12,14,14a-octahydro-5,9-(azeno)furo[3,4-1]pyrazolo[4,3-b][1]oxa[4,6,10]triazacyclotridecine] | 6.87
Cc1nn(C2CCC2)c2c1OC[C@H]1COC[C@@H]1Nc1cc(ncc1C(F)(F)F)N2 [Ex-13.2, (10aR,13aR)-3-cyclobutyl-1-methyl-8-(trifluoromethyl)-3,4,10a,11,13a,14-hexahydro-10H,13H-5,9-(metheno)furo[3,4-k]pyrazolo[4,3-b][1]oxa[4,6,10]triazacyclotridecine] | 7.01
CC(C)c1nn(C(C)(C)C#N)c2c1Nc1ncc(C(F)(F)F)c(n1)N[C@@H]1COC[C@H]1CO2 [Ex-1.14, 2-((10aS,13aS)-3-isopropyl-8-(trifluoromethyl)-10a,11,13a,14-tetrahydro-10H,13H-5,9-(azeno)furo[3,4-k]pyrazolo[3,4-b][1]oxa[4,6,10]triazacyclotridecin-1(4H)-yl)-2-methylpropanenitrile] | 8.66
COc1cccc2c1Nc1ncc(Cl)c(n1)N[C@@H]1COC[C@H]1CO2 [Ex-15.2, (3aS,16aS)-6-chloro-11-methoxy-3a,4,16,16a-tetrahydro-1H,3H,10H-5,9-(azeno)benzo[b]furo[3,4-k][1]oxa[4,6,10]triazacyclotridecine] | 9.65
CC(C)c1nn(C2CS(=O)(=O)C2)c2c1Nc1ncc(C(F)(F)F)c(n1)N[C@@H]1CC[C@H]1CO2 [Ex-10.1, 3-((10aR,12aR)-3-isopropyl-8-(trifluoromethyl)-10,10a,11,12,12a,13-hexahydro-5,9-(azeno)cyclobuta[k]pyrazolo[3,4-b][1]oxa[4,6,10]triazacyclotridecin-1 (4H)-yl) thietane 1,1-dioxide] | >10.09
Cc1nn(C)c2c1OC[C@H]1CCC(C1)Nc1nc(ncc1C(F)(F)F)N2 [Ex-2.88, (5^1R,5^3S)-1^1,1^3-dimethyl-3^5-(trifluoromethyl)-1^1H-7-oxa-2,4-diaza-3(2,4)-pyrimidina-1(5,4)-pyrazola-5(1,3)-cyclopentanacycloheptaphane] | 7.64
CC(C)c1nn(C(C)(C)CO)c2c1Nc1ncc(C(F)(F)F)c(n1)N[C@@H]1COC[C@H]1CO2 [Ex-7.5, 2-((10aS,13aS)-3-isopropyl-8-(trifluoromethyl)-10a,11,13a,14-tetrahydro-10H,13H-5,9-(azeno)furo[3,4-k]pyrazolo[3,4-b][1]oxa[4,6,10]triazacyclotridecin-1(4H)-yl)-2-methylpropan-1-ol] | >10.09
(R)- or (S)-1-cyclopropyl-3,7-dimethyl-10- (trifluoromethyl)-1,5,6,7,8,14-hexahydro- 9,13-(azeno)pyrazolo[4,3- b][1]oxa[4,6,10]triazacyclotridecine [Ex-2.21] | 9.00
Cc1nn(C)c2c1OC[C@@H]1CCC(C1)Nc1nc(ncc1C(F)(F)F)N2 [Ex-2.87, (5^1S,5^3R)-1^1,1^3-dimethyl-3^5-(trifluoromethyl)-1^1H-7-oxa-2,4-diaza-3(2,4)-pyrimidina-1(5,4)-pyrazola-5(1,3)-cyclopentanacycloheptaphane] | 6.84
